Laboratory results as given in ChEMBL document CHEMBL1201862, “PubChem BioAssay data set” (2004).
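Following 48 hours of exposure in 96-well plates, responses at five concentrations were used to interpolate endpoints linearly. GI50 = concentration required for 50% inhibition of growth.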 Activity calls are given as the source filed them. No stated cut-off is given here; in the data, active = GI50 up to about 1.1 µM and inactive = higher.

Key:
Assay in all cases: growth of human tumour cells (NCI), 48 h
OVCAR-4 = test system: OVCAR-4
SF-539 = test system: SF-539
KM12 = test system: KM12
HOP-92 = test system: HOP-92
K562 = test system: K562
TK-10 = test system: TK-10
SN12C = test system: SN12C
UACC-62 = test system: UACC-62
OVCAR-8 = test system: OVCAR-8
A549 = test system: A549
CAKI-1 = test system: CAKI-1
HCT-116 = test system: HCT-116
HCT-15 = test system: HCT-15
NCI-H460 = test system: NCI-H460
RPMI-8226 = test system: RPMI-8226
HCC 2998 = test system: HCC 2998

SMILES	GI50 (OVCAR-4)	GI50 (SF-539)	GI50 (KM12)	GI50 (HOP-92)	GI50 (K562)	GI50 (TK-10)	GI50 (SN12C)	GI50 (UACC-62)	GI50 (OVCAR-8)	GI50 (A549)	GI50 (CAKI-1)	GI50 (HCT-116)	GI50 (HCT-15) [µM]	GI50 (NCI-H460)	GI50 (RPMI-8226)	GI50 (HCC 2998)
CO/C=C(\Br)c1ccc2c(c1)OCO2	> 100 µM (inactive)	> 100 µM (inactive)	> 100 µM (inactive)	> 100 µM (inactive)	> 100 µM (inactive)	> 100 µM (inactive)	> 100 µM (inactive)	64.9 µM (inactive)	> 100 µM (inactive)	> 100 µM (inactive)	> 100 µM (inactive)	> 100 µM (inactive)				
O=c1cc(-c2ccccc2)oc2cc(OCC(O)COc3ccc4c(=O)cc(-c5ccccc5)oc4c3)ccc12		22.4 µM (inactive)	> 100 µM (inactive)	26.5 µM (inactive)	42.8 µM (inactive)	42.4 µM (inactive)		> 100 µM (inactive)	19.1 µM (inactive)	> 100 µM (inactive)	> 100 µM (inactive)	42.5 µM (inactive)	89.1	40.3 µM (inactive)	> 100 µM (inactive)	
C=CCCCCn1c2ccccc2c2c(C)c3c[n+](C)ccc3c(C)c21	0.284 µM (active)	0.564 µM (active)	0.392 µM (active)	0.237 µM (active)	0.281 µM (active)	1.86 µM (inactive)	0.234 µM (active)	0.336 µM (active)	0.197 µM (active)	0.3 µM (active)	14.3 µM (inactive)	0.244 µM (active)		0.356 µM (active)	0.212 µM (active)	
CC(C)CCC[C@@H](C)C1CCC2[C@@H]3CC=C4C[C@@H](OC(=O)CCC(=O)NCC[N+](C)(C)CCCS(=O)(=O)[O-])CC[C@]4(C)C3CC[C@@]21C (some centres undefined)	17.9 µM (inactive)	16.7 µM (inactive)	20.5 µM (inactive)		18.9 µM (inactive)		19.5 µM (inactive)	26.3 µM (inactive)	18.6 µM (inactive)	17.6 µM (inactive)	40.7 µM (inactive)	23.1 µM (inactive)	15.4	15.2 µM (inactive)	20 µM (inactive)	20.6 µM (inactive)
CC(=O)OCCOCNC(=S)N/N=C(\C)c1cnccn1	> 100 µM (inactive)	29.8 µM (inactive)	43.3 µM (inactive)		30.5 µM (inactive)	28.4 µM (inactive)	29.7 µM (inactive)	13.5 µM (inactive)	30.1 µM (inactive)	24.5 µM (inactive)		34.3 µM (inactive)	22.1	20.9 µM (inactive)	42.4 µM (inactive)	29 µM (inactive)
CC(=O)OC1CC2Oc3ccc(C)cc3C(C)(O2)C1=O (centres undefined)		> 100 µM (inactive)	> 100 µM (inactive)		> 100 µM (inactive)	> 100 µM (inactive)	> 100 µM (inactive)	> 100 µM (inactive)	> 100 µM (inactive)	> 100 µM (inactive)		> 100 µM (inactive)	> 100	> 100 µM (inactive)	> 100 µM (inactive)	
CC12CCC(=O)N1c1cc([N+](=O)[O-])ccc1N2 (centres undefined)	> 100 µM (inactive)	> 100 µM (inactive)	> 100 µM (inactive)		> 100 µM (inactive)		> 100 µM (inactive)	> 100 µM (inactive)	> 100 µM (inactive)	> 100 µM (inactive)		> 100 µM (inactive)	> 100		> 100 µM (inactive)	
O=C(NCCCl)SCCO	> 100 µM (inactive)	> 100 µM (inactive)	> 100 µM (inactive)		> 100 µM (inactive)	> 100 µM (inactive)	> 100 µM (inactive)	> 100 µM (inactive)	> 100 µM (inactive)	> 100 µM (inactive)		> 100 µM (inactive)	> 100	> 100 µM (inactive)	> 100 µM (inactive)	> 100 µM (inactive)
